Ends that are not written are not given here. Peptide text beside a SMILES is read from it.
Columns and labels:
Antibodies to HIV-1 [1] = test: ELISA with peptide or peptide mixture as antigen, identifying HIV-1 positive sera; type: binding, human; conditions: Table 3
Procedure: According to this test a peptide or a peptide mixture of the present invention is adsorbed onto the wells of a microtiter plate. The wells are then treated with sera to be tested. After washing, anti-human IgG labeled with peroxidase is added to the wells. The determination of the peroxidase is performed with a corresponding substrate, e.g. with o-phenylene diamine. Also in this procedure the peroxidase can be exchanged by another label, e.g. by a radioactive or fluorescence label.
(§1) Each well of the microtiter plate is saturated with 100 μl of a solution containing a peptide or mixture of peptides (5 μg/ml) and left overnight. The wells are emptied and washed twice with a washing buffer (Tris, 0.043M; NaCl, 0.5M; thimerosal, 0.01% w/v; Tween 20, 0.05% v/v; pH7.4). The wells are then saturated with 0.35 ml of washing buffer for 1 hr. at 37° C. and washed once with the same buffer. Serum samples to be analyzed are diluted with specimen buffer (washing buffer plus casein, 0.05% w/v). The wells are rinsed with washing buffer prior to the addition of the diluted serum sample (0.1 ml). These are left to incubate for 1 hr. at room temperature. The wells are then emptied, washed twice rapidly and then once for two minutes with washing buffer. […] The wells are then emptied and washed twice rapidly with washing buffer and then five times in which the buffer was in contact with the well 2 minutes per washing. The substrate solution (3,3', 5,5'-tetramethylbenzidine, 8 mg per ml of DMSO) is diluted with 100 volumes 0.1M citrate-acetate buffer, pH 5.6 containing 0.1% v/v of 30% H2 O2 and added to each well (0.1 ml per well). After 10 minutes the contents of each well is treated with 0.1 ml 2N H2 SO4 and the optical density read at 450 nm. All determinations are done in duplicate.

Antibodies to HIV-1 [2] = test: ELISA, relative performance of cyclic and non-cyclic HIV-1 peptides at serum dilutions (optical density); type: binding, human
Procedure: Table 4 is provided to illustrate the sensitivity of cyclic versus non cyclic peptides in the ELISA test by comparing the results of some sera at various dilutions.
as §1

[3] = single peptide, known HIV-1 positive sera
[4] = serum specimen 87V103, dilution 1/50
[5] = serum specimen 1428, dilution 1/50
[6] = serum specimen M-5, dilution 1/50
[7] = serum specimen M-5, dilution 1/100
[8] = serum specimen M-5, dilution 1/200
[9] = serum specimen M-5, dilution 1/800
[10] = serum specimen M-7, dilution 1/50
[11] = serum specimen M-7, dilution 1/100
[12] = serum specimen M-7, dilution 1/200
[13] = serum specimen M-7, dilution 1/400
[14] = serum specimen M-7, dilution 1/800
[15] = serum specimen M-8, dilution 1/50
[16] = serum specimen M-8, dilution 1/100
[17] = serum specimen M-8, dilution 1/200
[18] = serum specimen M-8, dilution 1/400
[19] = serum specimen M-8, dilution 1/800
[20] = serum specimen M-16, dilution 1/50
[21] = serum specimen M-16, dilution 1/100
[22] = serum specimen M-16, dilution 1/200
[23] = serum specimen M-16, dilution 1/400
[24] = serum specimen M-16, dilution 1/800
[25] = single p 24 peptide, Free, HIV-1 positive sera
[26] = single p 24 peptide, coupled, HIV-1 positive sera

CC[C@H](C)[C@@H]1NC(=O)[C@H](CC(C)C)NC(=O)[C@H](CCCCN)NC(=O)CNC(=O)[C@H](CO)NC(=O)[C@@H](NC(=O)CN)CSSC[C@@H](C(=O)N[C@H](C(=O)N[C@H](C(=O)N[C@@H](C)C(=O)N[C@H](C(=O)N2CCC[C@H]2C(=O)N[C@@H](Cc2c[nH]c3ccccc23)C(=O)N[C@@H](CC(N)=O)C(=O)N[C@@H](C)C(=O)N[C@@H](CO)C(=O)O)C(C)C)[C@@H](C)O)[C@@H](C)O)NC1=O [Peptide 80] (HELM PEPTIDE1{G.C.S.G.K.L.I.C.T.T.A.V.P.W.N.A.S}$PEPTIDE1,PEPTIDE1,2:R3-8:R3$$$V2.0)
% Positive Sera Correctly Identified (Antibodies to HIV-1 [1]; [3]): 100%
ELISA optical density (Antibodies to HIV-1 [2]; [4]): 0.003 OPTICAL DENSITY UNITS
ELISA optical density (Antibodies to HIV-1 [2]; [5]): 1.047 OPTICAL DENSITY UNITS
ELISA optical density (Antibodies to HIV-1 [2]; [6]): 2.104 OPTICAL DENSITY UNITS
ELISA optical density (Antibodies to HIV-1 [2]; [7]): 1.881 OPTICAL DENSITY UNITS
ELISA optical density (Antibodies to HIV-1 [2]; [8]): 1.599 OPTICAL DENSITY UNITS
ELISA optical density (Antibodies to HIV-1 [2]; [9]): 0.767 OPTICAL DENSITY UNITS
ELISA optical density (Antibodies to HIV-1 [2]; [10]): 0.191 OPTICAL DENSITY UNITS
ELISA optical density (Antibodies to HIV-1 [2]; [11]): 0.067 OPTICAL DENSITY UNITS
ELISA optical density (Antibodies to HIV-1 [2]; [12]): 0.019 OPTICAL DENSITY UNITS
ELISA optical density (Antibodies to HIV-1 [2]; [13]): 0.010 OPTICAL DENSITY UNITS
ELISA optical density (Antibodies to HIV-1 [2]; [14]): 0.005 OPTICAL DENSITY UNITS
ELISA optical density (Antibodies to HIV-1 [2]; [15]): 1.026 OPTICAL DENSITY UNITS
ELISA optical density (Antibodies to HIV-1 [2]; [16]): 0.737 OPTICAL DENSITY UNITS
ELISA optical density (Antibodies to HIV-1 [2]; [17]): 0.520 OPTICAL DENSITY UNITS
ELISA optical density (Antibodies to HIV-1 [2]; [18]): 0.340 OPTICAL DENSITY UNITS
ELISA optical density (Antibodies to HIV-1 [2]; [19]): 0.159 OPTICAL DENSITY UNITS
ELISA optical density (Antibodies to HIV-1 [2]; [20]): 1.601 OPTICAL DENSITY UNITS
ELISA optical density (Antibodies to HIV-1 [2]; [21]): 1.300 OPTICAL DENSITY UNITS
ELISA optical density (Antibodies to HIV-1 [2]; [22]): 0.903 OPTICAL DENSITY UNITS
ELISA optical density (Antibodies to HIV-1 [2]; [23]): 0.583 OPTICAL DENSITY UNITS
ELISA optical density (Antibodies to HIV-1 [2]; [24]): 0.329 OPTICAL DENSITY UNITS

CC[C@H](C)[C@H](NC(=O)CNC(=O)[C@H](CC(C)C)NC(=O)[C@H](CC(C)C)NC(=O)[C@H](CCC(N)=O)NC(=O)[C@H](CCC(N)=O)NC(=O)[C@H](CC(=O)O)NC(=O)[C@H](CCCCN)NC(=O)[C@H](CC(C)C)NC(=O)[C@H](Cc1ccc(O)cc1)NC(=O)[C@H](CCCNC(=N)N)NC(=O)[C@H](CCC(=O)O)NC(=O)[C@@H](NC(=O)[C@H](C)NC(=O)[C@H](CC(C)C)NC(=O)[C@@H](NC(=O)[C@@H](N)CCCNC(=N)N)[C@@H](C)CC)C(C)C)C(=O)N[C@@H](Cc1c[nH]c2ccccc12)C(=O)NCC(=O)N[C@H]1CSSC[C@@H](C(=O)N[C@H](C(=O)N[C@H](C(=O)N[C@@H](C)C(=O)N[C@H](C(=O)N2CCC[C@H]2C(=O)N[C@@H](Cc2c[nH]c3ccccc23)C(=O)N[C@@H](CC(N)=O)C(=O)N[C@@H](C)C(=O)N[C@@H](CO)C(=O)O)C(C)C)[C@@H](C)O)[C@@H](C)O)NC(=O)[C@H]([C@@H](C)CC)NC(=O)[C@H](CC(C)C)NC(=O)[C@H](CCCCN)NC(=O)CNC(=O)[C@H](CO)NC1=O [Peptide 87c] (HELM PEPTIDE1{R.I.L.A.V.E.R.Y.L.K.D.Q.Q.L.L.G.I.W.G.C.S.G.K.L.I.C.T.T.A.V.P.W.N.A.S}$PEPTIDE1,PEPTIDE1,20:R3-26:R3$$$V2.0)
% Positive Sera Correctly Identified (Antibodies to HIV-1 [1]; [3]): 99%
ELISA optical density (Antibodies to HIV-1 [2]; [4]): 0.011 OPTICAL DENSITY UNITS
ELISA optical density (Antibodies to HIV-1 [2]; [5]): > 2.0 OPTICAL DENSITY UNITS
ELISA optical density (Antibodies to HIV-1 [2]; [6]): > 2.0 OPTICAL DENSITY UNITS
ELISA optical density (Antibodies to HIV-1 [2]; [7]): > 2.0 OPTICAL DENSITY UNITS
ELISA optical density (Antibodies to HIV-1 [2]; [8]): > 2.0 OPTICAL DENSITY UNITS
ELISA optical density (Antibodies to HIV-1 [2]; serum specimen M-5, dilution 1/400): > 2.0 OPTICAL DENSITY UNITS
ELISA optical density (Antibodies to HIV-1 [2]; [9]): 1.854 OPTICAL DENSITY UNITS
ELISA optical density (Antibodies to HIV-1 [2]; [10]): > 2.0 OPTICAL DENSITY UNITS
ELISA optical density (Antibodies to HIV-1 [2]; [11]): > 2.0 OPTICAL DENSITY UNITS
ELISA optical density (Antibodies to HIV-1 [2]; [12]): 1.729 OPTICAL DENSITY UNITS
ELISA optical density (Antibodies to HIV-1 [2]; [13]): 1.348 OPTICAL DENSITY UNITS
ELISA optical density (Antibodies to HIV-1 [2]; [14]): 0.611 OPTICAL DENSITY UNITS
ELISA optical density (Antibodies to HIV-1 [2]; [15]): > 2.0 OPTICAL DENSITY UNITS
ELISA optical density (Antibodies to HIV-1 [2]; [16]): > 2.0 OPTICAL DENSITY UNITS
ELISA optical density (Antibodies to HIV-1 [2]; [17]): 1.655 OPTICAL DENSITY UNITS
ELISA optical density (Antibodies to HIV-1 [2]; [18]): 1.064 OPTICAL DENSITY UNITS
ELISA optical density (Antibodies to HIV-1 [2]; [19]): 0.384 OPTICAL DENSITY UNITS
ELISA optical density (Antibodies to HIV-1 [2]; [20]): > 2.0 OPTICAL DENSITY UNITS
ELISA optical density (Antibodies to HIV-1 [2]; [21]): > 2.0 OPTICAL DENSITY UNITS
ELISA optical density (Antibodies to HIV-1 [2]; [22]): > 2.0 OPTICAL DENSITY UNITS
ELISA optical density (Antibodies to HIV-1 [2]; [23]): > 2.0 OPTICAL DENSITY UNITS
ELISA optical density (Antibodies to HIV-1 [2]; [24]): 1.962 OPTICAL DENSITY UNITS

CC[C@H](C)[C@H](NC(=O)[C@H](CCC(N)=O)NC(=O)[C@H](CCC(=O)O)NC(=O)[C@H](CC(C)C)NC(=O)[C@H](CO)NC(=O)[C@H](CCCCN)NC(=O)[C@H](CC(N)=O)NC(=O)[C@H](CO)NC(=O)[C@H](Cc1c[nH]c2ccccc12)NC(=O)[C@H](CO)NC(=O)[C@H](C)NC(=O)[C@H](CC(N)=O)NC(=O)[C@H](Cc1c[nH]c2ccccc12)NC(=O)[C@@H]1CCCN1C(=O)[C@@H](NC(=O)[C@H](C)NC(=O)[C@@H](NC(=O)[C@@H](NC(=O)[C@@H]1CSSC[C@H](NC(=O)CN)C(=O)N[C@@H](CO)C(=O)NCC(=O)N[C@@H](CCCCN)C(=O)N[C@@H](CC(C)C)C(=O)N[C@@H]([C@@H](C)CC)C(=O)N1)[C@@H](C)O)[C@@H](C)O)C(C)C)C(=O)O [Peptide 96] (HELM PEPTIDE1{G.C.S.G.K.L.I.C.T.T.A.V.P.W.N.A.S.W.S.N.K.S.L.E.Q.I}$PEPTIDE1,PEPTIDE1,2:R3-8:R3$$$V2.0)
% Positive Sera Correctly Identified (Antibodies to HIV-1 [1]; [3]): 100%

CGKIEPLGVAPTKAKRRVVQREKR [Peptide 71]
% Positive Sera Correctly Identified (Antibodies to HIV-1 [1]; [3]): 83%

CGNNPPIPVGE [Peptide 41, NH2 -CGNNPPIPVGE-COOH]
% Positive Sera Correctly Identified (Antibodies to HIV-1 [1]; [25]): 63%
% Positive Sera Correctly Identified (Antibodies to HIV-1 [1]; [26]): 73%

CGRAEQASQEVKN [Peptide 46, NH2 -CGRAEQASQEVKN-COOH]
% Positive Sera Correctly Identified (Antibodies to HIV-1 [1]; [25]): 0%
% Positive Sera Correctly Identified (Antibodies to HIV-1 [1]; [26]): 93%

GHACVPTDPNPQEVVL [Peptide 14]
% Positive Sera Correctly Identified (Antibodies to HIV-1 [1]; [3]): 50%

NH2 -CGLGIWGCSGKLICTTAVPWNASWSNKSLEQI-COOH [Peptide 98]
% Positive Sera Correctly Identified (Antibodies to HIV-1 [1]; [3]): 100%

Source: patent publication US6218102A, “Synthetic peptides and mixtures thereof for detecting HIV antibodies” (priority 1988, dated 2001)
